# From paper PMC9330389, “Bambus[4,6]urils as Dual Scaffolds for Multivalent Iminosugar Presentation and Ion Transport: Access to Unprecedented Glycosidase-Directed Anion Caging Agents” (Molecules, 2022)
# Like-named read-outs stand apart in the source and are kept apart here.
# What was measured:
# Jack Bean α-mannosidase [1] = biological target: T1, Jack Bean α-mannosidase (Canavalia ensiformis, UniProt C0HJB3); assay: Inhibition assays on Jack-Bean α-mannosidase (p-nitrophenyl-α-D-mannopyranoside hydrolysis, Dixon and Lineweaver–Burk); format: biochemical; settings: for Ki: 0.2 M acetate buffer pH 5, 25-27 °C, for mixed inhibitors the first value of the cell (Ki); for Ki': mixed inhibition, second value of the cell (Ki' in supplement); for Rp (relative potency): rp = Ki (monovalent reference)/Ki (neoglycocluster); for rp/n (relative potency per inhitope): n = number of inhitope units
# T1 construct: purchased Sigma Aldrich, St. Louis, MO, USA
# T1 sequence (C0HJB3 1-981): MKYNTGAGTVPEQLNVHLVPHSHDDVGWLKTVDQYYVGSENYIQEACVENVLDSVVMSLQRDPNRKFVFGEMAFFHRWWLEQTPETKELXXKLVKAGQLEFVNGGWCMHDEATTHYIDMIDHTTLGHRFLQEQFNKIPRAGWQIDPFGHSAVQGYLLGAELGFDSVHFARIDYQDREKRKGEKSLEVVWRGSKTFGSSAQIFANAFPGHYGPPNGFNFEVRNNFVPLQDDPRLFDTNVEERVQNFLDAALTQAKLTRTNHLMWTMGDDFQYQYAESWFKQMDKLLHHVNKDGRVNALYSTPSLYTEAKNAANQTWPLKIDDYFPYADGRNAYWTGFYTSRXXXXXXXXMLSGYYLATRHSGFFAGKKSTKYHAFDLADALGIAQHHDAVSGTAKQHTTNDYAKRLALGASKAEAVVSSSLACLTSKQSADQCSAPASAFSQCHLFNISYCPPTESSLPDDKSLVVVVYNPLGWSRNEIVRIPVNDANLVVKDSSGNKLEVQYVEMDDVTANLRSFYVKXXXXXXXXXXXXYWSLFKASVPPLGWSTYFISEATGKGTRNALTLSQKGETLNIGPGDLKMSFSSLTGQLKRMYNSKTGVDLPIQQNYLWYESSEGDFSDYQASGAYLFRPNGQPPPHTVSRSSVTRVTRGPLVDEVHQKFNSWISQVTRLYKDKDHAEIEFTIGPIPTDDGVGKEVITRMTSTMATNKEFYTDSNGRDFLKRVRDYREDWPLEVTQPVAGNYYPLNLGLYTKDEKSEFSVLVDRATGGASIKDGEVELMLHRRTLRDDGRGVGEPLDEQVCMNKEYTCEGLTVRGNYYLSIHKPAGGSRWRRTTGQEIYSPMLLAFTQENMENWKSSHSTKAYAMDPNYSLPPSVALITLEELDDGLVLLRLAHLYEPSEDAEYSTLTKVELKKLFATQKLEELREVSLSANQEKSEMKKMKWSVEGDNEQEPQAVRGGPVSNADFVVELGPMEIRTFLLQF
# Protocol: p-nitrophenyl-α-D-mannopyranoside and α-mannosidase (EC 3.2.1.24, from Jack Bean) were purchased from Sigma Aldrich, St. Louis, MO, USA. Inhibition constants were determined spectrophotometrically by measuring the residual hydrolytic activities of the α-mannosidase against p-nitrophenyl-α-D-mannopyranoside in the presence and absence of an inhibitor. Each well was filled with a total volume of 100 µL, containing 0.2 M acetate buffer pH 5, inhibitor, substrate and enzyme. All kinetics were performed between 25 °C and 27 °C and started by enzyme addition. After 30–50 min of incubation, the reaction was quenched by addition of 100 µL of 1M Na2CO3. The absorbance of the resulting solution was determined at 405 nm. Ki values were determined in triplicate, using the Dixon and Lineweaver–Burk graphical methods within Microsoft Excel. Stock solutions of inhibitors were prepared with DMSO/buffer for final well DMSO content under 5%. The stability of the enzyme in the presence of the same concentrations of DMSO was controlled and enzyme activity was unaffected.
# [2] = Isothermal titration calorimetry of iodide binding to bambusuril; settings: in water, ITC
# Protocol: ITC measurements were performed with a VP-ITC microcalorimeter (Microcal, GEHealthcare). Experiments were carried out in water and in a solution of K2HPO4 (1.5 mM) in mili-Q water at 298.15 ± 0.1 K. Anion binding to BU was investigated via a classical isothermal titration experiment (10 µL additions) and a single injection method (SIM). Injection of sodium iodide solution was added automatically to the BU solution present in the calorimeter cell while stirring at 307 rpm. Integrated heat effects were analyzed by non-linear regression using a single-site binding model (Microcal Origin 7). The experimental data fitted to a theorical titration curve, giving the association constant Ka, the enthalpy of binding ΔH° and the entropy ΔS°. The free energy ΔG° was calculated from the equation: ΔG° = ΔH° − TΔS°, where T is the absolute temperature. The first smaller addition (2 µL), which was used to compensate for diffusion of the guest from the injector during equilibration, was discarded prior to data fitting.
# Figure S1. Isothermal titration calorimetry of I- binding to (DNJ-C6)12BU[6] 6 in H2O.
# Top: Data were obtained from the sequential injections of 10µL of guest solution (0.6 mM NaI) to BU
# 6 (0.05 mM). Bottom: Plot of the total heat released as a function of the total ligand concentration
# for the titration shown upper.
# (1 picture or pasted object on this page, not shown here)
# Jack Bean α-mannosidase [3] = biological target: T1, Jack Bean α-mannosidase; settings: cited from earlier work; for Inhibition Mode: monovalent references
SMILES,Inhibition Mode (Jack Bean α-mannosidase [1]),Ki (Jack Bean α-mannosidase [1]) [µM],Ki' (Jack Bean α-mannosidase [1]) [µM],Rp (relative potency) (Jack Bean α-mannosidase [1]),Ka (iodide) [2] [M⁻¹],rp/n (relative potency per inhitope) (Jack Bean α-mannosidase [1]),Ki (Jack Bean α-mannosidase [3]; monovalent C6 reference) [µM],Inhibition Mode (Jack Bean α-mannosidase [3]),Ki (Jack Bean α-mannosidase [3]; monovalent C9 reference) [µM]
"O=C1N(Cc2cn(CCCCCCN3C[C@H](O)[C@@H](O)[C@H](O)[C@H]3CO)nn2)C2C(N1Cc1cn(CCCCCCN3C[C@H](O)[C@@H](O)[C@H](O)[C@H]3CO)nn1)N1CN3C(=O)N(CN4C(=O)N(CN5C(=O)N(CN6C(=O)N(CN7C(=O)N(CN2C1=O)C1C7N(Cc2cn(CCCCCCN7C[C@H](O)[C@@H](O)[C@H](O)[C@H]7CO)nn2)C(=O)N1Cc1cn(CCCCCCN2C[C@H](O)[C@@H](O)[C@H](O)[C@H]2CO)nn1)C1C6N(Cc2cn(CCCCCCN6C[C@H](O)[C@@H](O)[C@H](O)[C@H]6CO)nn2)C(=O)N1Cc1cn(CCCCCCN2C[C@H](O)[C@@H](O)[C@H](O)[C@H]2CO)nn1)C1C5N(Cc2cn(CCCCCCN5C[C@H](O)[C@@H](O)[C@H](O)[C@H]5CO)nn2)C(=O)N1Cc1cn(CCCCCCN2C[C@H](O)[C@@H](O)[C@H](O)[C@H]2CO)nn1)C1C4N(Cc2cn(CCCCCCN4C[C@H](O)[C@@H](O)[C@H](O)[C@H]4CO)nn2)C(=O)N1Cc1cn(CCCCCCN2C[C@H](O)[C@@H](O)[C@H](O)[C@H]2CO)nn1)C1C3N(Cc2cn(CCCCCCN3C[C@H](O)[C@@H](O)[C@H](O)[C@H]3CO)nn2)C(=O)N1Cc1cn(CCCCCCN2C[C@H](O)[C@@H](O)[C@H](O)[C@H]2CO)nn1 (stereo partly shown) [Compound 6, (DNJ-C6)12BU[6]]",mixed,68.2,147 ± 21,4.7,480000,,,,
"CCCC[N+](CCCC)(CCCC)CCCC.O=C1N(Cc2cn(CCCCCCN3C[C@H](O)[C@@H](O)[C@H](O)[C@H]3CO)nn2)C2C(N1Cc1cn(CCCCCCN3C[C@H](O)[C@@H](O)[C@H](O)[C@H]3CO)nn1)N1CN3C(=O)N(CN4C(=O)N(CN5C(=O)N(CN6C(=O)N(CN7C(=O)N(CN2C1=O)C1C7N(Cc2cn(CCCCCCN7C[C@H](O)[C@@H](O)[C@H](O)[C@H]7CO)nn2)C(=O)N1Cc1cn(CCCCCCN2C[C@H](O)[C@@H](O)[C@H](O)[C@H]2CO)nn1)C1C6N(Cc2cn(CCCCCCN6C[C@H](O)[C@@H](O)[C@H](O)[C@H]6CO)nn2)C(=O)N1Cc1cn(CCCCCCN2C[C@H](O)[C@@H](O)[C@H](O)[C@H]2CO)nn1)C1C5N(Cc2cn(CCCCCCN5C[C@H](O)[C@@H](O)[C@H](O)[C@H]5CO)nn2)C(=O)N1Cc1cn(CCCCCCN2C[C@H](O)[C@@H](O)[C@H](O)[C@H]2CO)nn1)C1C4N(Cc2cn(CCCCCCN4C[C@H](O)[C@@H](O)[C@H](O)[C@H]4CO)nn2)C(=O)N1Cc1cn(CCCCCCN2C[C@H](O)[C@@H](O)[C@H](O)[C@H]2CO)nn1)C1C3N(Cc2cn(CCCCCCN3C[C@H](O)[C@@H](O)[C@H](O)[C@H]3CO)nn2)C(=O)N1Cc1cn(CCCCCCN2C[C@H](O)[C@@H](O)[C@H](O)[C@H]2CO)nn1.[Br-] (stereo partly shown) [Compound 8, Br^−@(DNJ-C6)12BU[6].TBA^+]",mixed,85.6,191 ± 37,3.8,,,,,
"CCCC[N+](CCCC)(CCCC)CCCC.O=C1N(Cc2cn(CCCCCCN3C[C@H](O)[C@@H](O)[C@H](O)[C@H]3CO)nn2)C2C(N1Cc1cn(CCCCCCN3C[C@H](O)[C@@H](O)[C@H](O)[C@H]3CO)nn1)N1CN3C(=O)N(CN4C(=O)N(CN5C(=O)N(CN6C(=O)N(CN7C(=O)N(CN2C1=O)C1C7N(Cc2cn(CCCCCCN7C[C@H](O)[C@@H](O)[C@H](O)[C@H]7CO)nn2)C(=O)N1Cc1cn(CCCCCCN2C[C@H](O)[C@@H](O)[C@H](O)[C@H]2CO)nn1)C1C6N(Cc2cn(CCCCCCN6C[C@H](O)[C@@H](O)[C@H](O)[C@H]6CO)nn2)C(=O)N1Cc1cn(CCCCCCN2C[C@H](O)[C@@H](O)[C@H](O)[C@H]2CO)nn1)C1C5N(Cc2cn(CCCCCCN5C[C@H](O)[C@@H](O)[C@H](O)[C@H]5CO)nn2)C(=O)N1Cc1cn(CCCCCCN2C[C@H](O)[C@@H](O)[C@H](O)[C@H]2CO)nn1)C1C4N(Cc2cn(CCCCCCN4C[C@H](O)[C@@H](O)[C@H](O)[C@H]4CO)nn2)C(=O)N1Cc1cn(CCCCCCN2C[C@H](O)[C@@H](O)[C@H](O)[C@H]2CO)nn1)C1C3N(Cc2cn(CCCCCCN3C[C@H](O)[C@@H](O)[C@H](O)[C@H]3CO)nn2)C(=O)N1Cc1cn(CCCCCCN2C[C@H](O)[C@@H](O)[C@H](O)[C@H]2CO)nn1.[I-] (stereo partly shown) [Compound 9, I^-@(DNJ-C6)12BU[6].TBA^+]",mixed,108,162 ± 40,3.0,,< 1,,,
"CCCC[N+](CCCC)(CCCC)CCCC.O=C1N(Cc2cn(CCCCCCCCCN3C[C@H](O)[C@@H](O)[C@H](O)[C@H]3CO)nn2)C2C(N1Cc1cn(CCCCCCCCCN3C[C@H](O)[C@@H](O)[C@H](O)[C@H]3CO)nn1)N1CN3C(=O)N(CN4C(=O)N(CN5C(=O)N(CN6C(=O)N(CN7C(=O)N(CN2C1=O)C1C7N(Cc2cn(CCCCCCCCCN7C[C@H](O)[C@@H](O)[C@H](O)[C@H]7CO)nn2)C(=O)N1Cc1cn(CCCCCCCCCN2C[C@H](O)[C@@H](O)[C@H](O)[C@H]2CO)nn1)C1C6N(Cc2cn(CCCCCCCCCN6C[C@H](O)[C@@H](O)[C@H](O)[C@H]6CO)nn2)C(=O)N1Cc1cn(CCCCCCCCCN2C[C@H](O)[C@@H](O)[C@H](O)[C@H]2CO)nn1)C1C5N(Cc2cn(CCCCCCCCCN5C[C@H](O)[C@@H](O)[C@H](O)[C@H]5CO)nn2)C(=O)N1Cc1cn(CCCCCCCCCN2C[C@H](O)[C@@H](O)[C@H](O)[C@H]2CO)nn1)C1C4N(Cc2cn(CCCCCCCCCN4C[C@H](O)[C@@H](O)[C@H](O)[C@H]4CO)nn2)C(=O)N1Cc1cn(CCCCCCCCCN2C[C@H](O)[C@@H](O)[C@H](O)[C@H]2CO)nn1)C1C3N(Cc2cn(CCCCCCCCCN3C[C@H](O)[C@@H](O)[C@H](O)[C@H]3CO)nn2)C(=O)N1Cc1cn(CCCCCCCCCN2C[C@H](O)[C@@H](O)[C@H](O)[C@H]2CO)nn1.[Br-] (stereo partly shown) [Compound 10, Br^-@(DNJ-C9)12BU[6].TBA^+]",competitive,0.488,,385,,32,,,
CCCn1cc(CCCCCCN2C[C@H](O)[C@@H](O)[C@H](O)[C@H]2CO)nn1 [Compound 21],,,,,,,322,competitive,
CCCn1cc(CCCCCCCCCN2C[C@H](O)[C@@H](O)[C@H](O)[C@H]2CO)nn1 [Compound 22],,,,,,,,competitive,188
